# Experimental data published in patent US10544149B2, “Bicyclic alkyne derivatives and uses thereof” (Agency for Science, Technology and Research, priority 2013, dated 2020).
# Legend:
# MNK2 = MNK2 (Homo sapiens, UniProt Q9HBH9); assay: MNK2 enzymatic assay; assay type: biochemical
# MNK1 = MNK1 (Homo sapiens, UniProt Q9BUB5); assay: MNK1 enzymatic assay; assay type: biochemical
# [1] = test system: eIF4e phosphorylation in Hela cell line; assay: eIF4e phosphorylation inhibition in Hela cell line; assay type: cell-based; details: Homo sapiens, cellular
# Sequence of MNK2 (Q9HBH9 whole entry): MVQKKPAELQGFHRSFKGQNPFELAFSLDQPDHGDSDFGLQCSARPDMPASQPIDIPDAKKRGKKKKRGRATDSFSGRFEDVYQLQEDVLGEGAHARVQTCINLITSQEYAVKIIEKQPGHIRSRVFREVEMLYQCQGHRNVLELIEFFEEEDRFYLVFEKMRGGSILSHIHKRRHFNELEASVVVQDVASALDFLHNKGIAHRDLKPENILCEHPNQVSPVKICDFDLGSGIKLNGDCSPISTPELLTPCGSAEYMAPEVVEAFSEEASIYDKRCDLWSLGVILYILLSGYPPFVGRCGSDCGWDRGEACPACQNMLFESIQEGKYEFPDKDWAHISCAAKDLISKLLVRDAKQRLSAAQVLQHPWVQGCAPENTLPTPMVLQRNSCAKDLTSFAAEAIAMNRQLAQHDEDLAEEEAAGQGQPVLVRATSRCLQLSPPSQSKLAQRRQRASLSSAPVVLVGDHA
# Sequence of MNK1 (Q9BUB5 whole entry): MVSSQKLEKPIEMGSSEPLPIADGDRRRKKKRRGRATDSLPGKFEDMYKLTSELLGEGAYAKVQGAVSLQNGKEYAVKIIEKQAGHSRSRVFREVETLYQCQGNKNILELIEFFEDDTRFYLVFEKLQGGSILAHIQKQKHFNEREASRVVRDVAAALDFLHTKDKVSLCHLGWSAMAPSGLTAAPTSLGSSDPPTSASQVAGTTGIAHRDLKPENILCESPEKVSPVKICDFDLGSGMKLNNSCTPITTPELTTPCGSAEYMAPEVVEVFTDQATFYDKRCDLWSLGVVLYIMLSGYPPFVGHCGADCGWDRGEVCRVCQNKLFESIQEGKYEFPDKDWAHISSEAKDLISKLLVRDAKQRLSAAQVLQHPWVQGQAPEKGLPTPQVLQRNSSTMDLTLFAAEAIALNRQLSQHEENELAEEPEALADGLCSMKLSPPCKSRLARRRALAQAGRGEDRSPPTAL
IC50 (MNK2),IC50 (MNK1),IC50 [1],Structure (SMILES)
< 0.5 µM,< 0.5 µM,< 5 µM,O=C(c1ccc(-c2ccc3ncc(C#Cc4ccncc4)n3c2)cc1)N1CCOCC1 [Example 094]
< 0.5 µM,< 0.5 µM,< 5 µM,"Cc1ccccc1Nc1cc(C#Cc2cnc3ccc(-c4ccc(C(=O)N5CCNCC5)cc4)cn23)ccn1 [Example 106, piperazin-1-yl(4-(3-((2-(o-tolylamino)pyridin-4-yl)ethynyl)imidazo[1,2-a]pyridin-6-yl)phenyl)methanone]"
< 0.5 µM,< 0.5 µM,< 5 µM,"O=C(c1ccc(-c2ccc3ncc(C#Cc4ccnc(Nc5nccs5)c4)n3n2)cc1)N1CCOCC1 [Example 053, morpholino(4-(3-((2-(thiazol-2-ylamino)pyridin-4-yl)ethynyl)imidazo[1,2-b]pyridazin-6-yl)phenyl)methanone]"
< 0.5 µM,< 0.5 µM,< 5 µM,"CN(c1ccccc1)c1cc(C#Cc2cnc3ccc(-c4ccc(C(=O)N5CCOCC5)cc4)nn23)ccn1 [Example 071, (4-(3-((2-(methyl(phenyl)amino)pyridin-4-yl)ethynyl)imidazo[1,2-b]pyridazin-6-yl)phenyl) (morpholino) methanone]"
< 0.5 µM,< 0.5 µM,< 5 µM,"Nc1cc(C#Cc2cnc3ccc(-c4ccc(C(=O)N5CCNCC5)cc4)cn23)ccn1 [Example 108, (4-(3-((2-aminopyridin-4-yl)ethynyl)imidazo[1,2-a]pyridin-6-yl)phenyl)(piperazin-1-yl)methanone]"
< 0.5 µM,< 0.5 µM,< 5 µM,"CC(C)c1ccccc1Nc1cc(C#Cc2cnc3ccc(-c4ccc(C(=O)N5CCOCC5)cc4)nn23)ccn1 [Example 059, (4-(3-((2-(2-isopropylphenylamino)pyridin-4-yl)ethynyl)imidazo[1,2-b]pyridazin-6-yl)phenyl)(morpholino)methanone]"
< 0.5 µM,< 0.5 µM,< 5 µM,"Cn1ccc2c(C#Cc3cnc4ccc(-c5ccc(C(=O)N6CCOCC6)cc5)nn34)ccnc21 [Example 035, (4-(3-((1-methyl-1H-pyrrolo[2,3-b]pyridin-4-yl)ethynyl)imidazo[1,2-b]pyridazin-6-yl)phenyl)(morpholino) methanone]"
< 0.5 µM,< 0.5 µM,< 5 µM,O=C(CCl)Nc1cc(C#Cc2cnc3ccc(-c4ccc(C(=O)N5CCOCC5)cc4)nn23)ccn1 [Example 043]
< 0.5 µM,< 0.5 µM,< 5 µM,Nc1cc(C#Cc2cnc3ccc(-c4ccc(C(=O)N5CCOCC5)cc4)cn23)ccn1 [Example 096]
< 0.5 µM,< 0.5 µM,< 5 µM,"O=C(c1ccc(-c2ccc3ncc(C#Cc4ccnc(Nc5ccccc5)c4)n3n2)cc1)N1CCOCC1 [Example 051, morpholino(4-(3-((2-(phenylamino)pyridin-4-yl)ethynyl)imidazo[1,2-b]pyridazin-6-yl)phenyl)methanone]"
< 0.5 µM,< 0.5 µM,< 5 µM,"O=C(c1ccc(-c2ccc3ncc(C#Cc4ccnc(Nc5ccccn5)c4)n3n2)cc1)N1CCOCC1 [Example 048, morpholino(4-(3-((2-(pyridin-2-ylamino)pyridin-4-yl)ethynyl)imidazo[1,2-b]pyridazin-6-yl)phenyl)methanone]"
< 0.5 µM,< 0.5 µM,< 5 µM,"CC(=O)Nc1cc(C#Cc2cnc3ccc(-c4ccc(C(=O)N5CCNCC5)cc4)cn23)ccn1 [Example 101, N-(4-((6-(4-(piperazine-1-carbonyl)phenyl)imidazo[1,2-a]pyridin-3-yl)ethynyl)pyridin-2-yl)acetamide]"
< 0.5 µM,< 0.5 µM,< 5 µM,"O=C(c1ccc(-c2ccc3ncc(C#Cc4ccnc(Nc5ccncn5)c4)n3n2)cc1)N1CCOCC1 [Example 054, morpholino(4-(3-((2-(pyrimidin-4-ylamino)pyridin-4-yl)ethynyl)imidazo[1,2-b]pyridazin-6-yl)phenyl)methanone]"
< 0.5 µM,< 0.5 µM,< 5 µM,"O=C(c1ccc(-c2ccc3ncc(C#Cc4ccc(O)nc4)n3n2)cc1)N1CCOCC1 [Example 040, (4-(3-((6-hydroxypyridin-3-yl)ethynyl)imidazo[1,2-b]pyridazin-6-yl)phenyl) (morpholino)methanone]"
< 0.5 µM,< 0.5 µM,< 5 µM,"NC(=O)c1ccc(-c2ccc3ncc(C#Cc4ccnc(N)c4)n3n2)cc1 [Example 074, 4-(3-((2-aminopyridin-4-yl)ethynyl)imidazo[1,2-b]pyridazin-6-yl)benzamide]"
< 0.5 µM,< 0.5 µM,< 5 µM,"O=C(c1ccc(-c2ccc3ncc(C#Cc4ccnc5[nH]ccc45)n3n2)cc1)N1CCOCC1 [Example 033, (4-(3-((1H-pyrrolo[2,3-b]pyridin-4-yl)ethynyl)imidazo[1,2-b]pyridazin-6-yl)phenyl) (morpholino)methanone]"

IC50 (MNK2),IC50 (MNK1),IC50 [1],Structure (SMILES)
< 0.5 µM,< 0.5 µM,< 5 µM,"CN1CCN(C(=O)c2ccc(-c3ccc4ncc(C#Cc5ccccc5)n4n3)cc2)CC1 [Example 002, (4-methylpiperazin-1-yl) (4-(3-(phenylethynyl)imidazo[1,2-b]pyridazin-6-yl)phenyl)methanone]"
< 0.5 µM,< 0.5 µM,< 5 µM,"Cc1ncccc1Nc1cc(C#Cc2cnc3ccc(-c4ccc(C(=O)N5CCOCC5)cc4)nn23)ccn1 [Example 047, (4-(3-((2-((2-methylpyridin-3-yl)amino)pyridin-4-yl)ethynyl)imidazo[1,2-b]pyridazin-6-yl)phenyl) (morpholino)methanone]"
< 0.5 µM,< 0.5 µM,< 5 µM,"Cc1ccccc1Nc1cc(C#Cc2cnc3ccc(-c4ccc(C(=O)N5CCOCC5)cc4)nn23)ccn1 [Example 052, morpholino(4-(3-((2-(o-tolylamino)pyridin-4-yl)ethynyl)imidazo[1,2-b]pyridazin-6-yl)phenyl)methanone]"
< 0.5 µM,< 0.5 µM,< 5 µM,"O=C(c1ccc(-c2ccc3ncc(C#Cc4ccnc(Nc5ncccn5)c4)n3n2)cc1)N1CCOCC1 [Example 056, morpholino(4-(3-((2-(pyrimidin-2-ylamino)pyridin-4-yl)ethynyl)imidazo[1,2-b]pyridazin-6 yl)phenyl)methanone]"
< 0.5 µM,< 0.5 µM,< 5 µM,"O=C(c1ccc(-c2ccc3ncc(C#Cc4ccnc5[nH]ccc45)n3n2)cc1)N1CCNCC1 [Example 045, (4-(3-((1H-pyrrolo[2,3-b]pyridin-4-yl)ethynyl)imidazo[1,2-b]pyridazin-6-yl)phenyl)(piperazin-1-yl) methanone]"
< 0.5 µM,< 0.5 µM,< 5 µM,"CC(=O)Nc1cccc(C#Cc2cnc3ccc(-c4ccc(C(=O)N5CCN(C)CC5)cc4)nn23)c1 [Example 008, N-(3-((6-(4-(4-methylpiperazine-1-carbonyl)phenyl)imidazo[1,2-b]pyridazin-3-yl)ethynyl)phenyl)acetamide]"
< 0.5 µM,< 0.5 µM,< 5 µM,"O=C(c1ccc(-c2ccc3ncc(C#Cc4ccnc5[nH]ncc45)n3c2)cc1)N1CCNCC1 [Example 104, (4-(3-((1H-pyrazolo[3,4-b]pyridin-4-yl)ethynyl)imidazo[1,2-a]pyridin-6-yl)phenyl) (piperazin-1-yl)methanone]"
< 0.5 µM,< 0.5 µM,< 5 µM,"O=C(c1ccc(-c2ccc3ncc(C#Cc4ccc5[nH]cnc5c4)n3n2)cc1)N1CCOCC1 [Example 027, (4-(3-((1H-benzo[d]imidazol-5-yl)ethynyl)imidazo[1,2-b]pyridazin-6-yl)phenyl)(morpholino)methanone]"
< 0.5 µM,< 0.5 µM,< 5 µM,"Cc1ccc(Nc2cc(C#Cc3cnc4ccc(-c5ccc(C(=O)N6CCOCC6)cc5)nn34)ccn2)cc1 [Example 058, morpholino(4-(3-((2-(p-tolylamino)pyridin-4-yl)ethynyl)imidazo[1,2-b]pyridazin-6-yl)phenyl)methanone]"
< 0.5 µM,< 0.5 µM,< 5 µM,"Cc1cnccc1C#Cc1cnc2ccc(-c3ccc(C(=O)N4CCOCC4)cc3)cn12 [Example 095, (4-(3-((3-methylpyridin-4-yl)ethynyl)imidazo[1,2-a]pyridin-6-yl)phenyl) (morpholino)methanone]"
< 0.5 µM,< 0.5 µM,< 5 µM,"CS(=O)(=O)Nc1cccc(C#Cc2cnc3ccc(-c4ccc(C(=O)N5CCOCC5)cc4)nn23)c1 [Example 011, N-(3-((6-(4-(morpholine-4-carbonyl)phenyl)imidazo[1,2-b]pyridazin-3-yl)ethynyl)phenyl)methane sulfonamide]"
< 0.5 µM,< 0.5 µM,< 5 µM,O=C(c1ccc(-c2ccc3ncc(C#Cc4ccncc4)n3n2)cc1)N1CCOCC1 [Example 032]
< 0.5 µM,< 0.5 µM,< 5 µM,"O=C(c1ccc(-c2ccc3ncc(C#Cc4ccnc(Nc5cccnc5)c4)n3n2)cc1)N1CCOCC1 [Example 049, morpholino(4-(3-((2-(pyridin-3-ylamino)pyridin-4-yl)ethynyl)imidazo[1,2-b]pyridazin-6 yl)phenyl)methanone]"
< 0.5 µM,< 0.5 µM,< 5 µM,"O=C(c1ccc(-c2ccc3ncc(C#Cc4ccnc(-c5ccccc5)c4)n3n2)cc1)N1CCOCC1 [Example 070, morpholino(4-(3-((2-phenylpyridin-4-yl)ethynyl)imidazo[1,2-b]pyridazin-6-yl)phenyl)methanone]"
< 0.5 µM,< 0.5 µM,< 5 µM,"Nc1cc(C#Cc2cnc3ccc(-c4ccc(C(=O)N5CCOCC5)cc4)nn23)c2cc[nH]c2n1 [Example 017, (4-(3-((6-amino-1H-pyrrolo[2,3-b]pyridin-4-yl)ethynyl)imidazo[1,2-b]pyridazin-6-yl)phenyl)(morpholino)methanone]"
